Measurements published in PMC4582037, “Binding interaction of a novel fluorophore with serum albumins: steady state fluorescence perturbation and molecular modeling analysis” (SpringerPlus, 2015).

Experiments:
[1] = molecular target: T1, human serum albumin (HSA) (Homo sapiens, UniProt P02768); experiment: fluorescence anisotropy titration of compound […]) with protein, Langmuir isotherm fit; assay type: binding
T1 construct: gene ALB

[2] = molecular target: T2, bovine serum albumin (BSA) (Bos taurus, UniProt P02769); experiment: as above; assay type: binding
T2 construct: gene ALB
T2 sequence (P02769 25-607): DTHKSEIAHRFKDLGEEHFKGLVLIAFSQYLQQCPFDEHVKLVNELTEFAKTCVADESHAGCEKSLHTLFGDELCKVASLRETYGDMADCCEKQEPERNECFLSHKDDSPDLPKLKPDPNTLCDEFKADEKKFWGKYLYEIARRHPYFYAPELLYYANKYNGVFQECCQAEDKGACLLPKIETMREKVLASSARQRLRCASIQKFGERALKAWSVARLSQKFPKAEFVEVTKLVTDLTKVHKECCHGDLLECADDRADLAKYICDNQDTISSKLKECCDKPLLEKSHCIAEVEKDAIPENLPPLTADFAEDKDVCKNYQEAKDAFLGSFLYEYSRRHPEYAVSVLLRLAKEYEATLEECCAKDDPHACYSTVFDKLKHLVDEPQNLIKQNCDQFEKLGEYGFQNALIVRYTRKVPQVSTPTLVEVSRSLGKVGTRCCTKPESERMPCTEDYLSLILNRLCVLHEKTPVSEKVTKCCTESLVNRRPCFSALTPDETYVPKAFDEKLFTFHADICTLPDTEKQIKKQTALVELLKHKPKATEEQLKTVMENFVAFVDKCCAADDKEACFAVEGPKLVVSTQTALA

T1 sequence (P02768 25-609): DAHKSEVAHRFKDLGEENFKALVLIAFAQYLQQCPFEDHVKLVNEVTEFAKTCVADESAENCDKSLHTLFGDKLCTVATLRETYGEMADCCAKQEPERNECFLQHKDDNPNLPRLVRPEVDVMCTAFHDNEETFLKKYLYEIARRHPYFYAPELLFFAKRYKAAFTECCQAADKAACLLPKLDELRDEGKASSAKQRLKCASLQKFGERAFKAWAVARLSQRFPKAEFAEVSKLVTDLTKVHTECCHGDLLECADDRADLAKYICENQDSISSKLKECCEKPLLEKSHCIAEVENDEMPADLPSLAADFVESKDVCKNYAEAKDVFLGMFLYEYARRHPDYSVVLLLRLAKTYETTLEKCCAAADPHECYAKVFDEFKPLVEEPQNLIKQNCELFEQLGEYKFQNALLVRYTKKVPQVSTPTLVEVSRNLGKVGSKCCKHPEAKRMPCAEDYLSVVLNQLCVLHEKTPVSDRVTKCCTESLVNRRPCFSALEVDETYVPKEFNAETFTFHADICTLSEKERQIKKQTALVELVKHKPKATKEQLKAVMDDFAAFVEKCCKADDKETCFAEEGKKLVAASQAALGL

COC(=O)CCNC(=O)c1ccc2cc(N(CC(=O)OC(C)(C)C)c3ccc(OC)cc3)ccc2c1 [compound 5, methyl 3-[(6-{[2-(tert-butoxy)-2-oxoethyl] (4-methoxyphenyl)amino}naphthalen-2-yl)formamido]propanoate]
Kd [1]: 2050 nM
Kd [2]: 1930 nM
